Entries after “also recorded” stand apart in the source; their conditions may differ.
How the values were obtained:
h9B1 = assay type: binding; conditions: for Ki: read-out: Ki (h9B1), pH 7.4; for Kd: read-out: Kd as printed in text (h9B1)
9B1 [1] = assay type: binding, mouse; conditions: for Ki: read-out: Ki (9B1), pH 7.4; for Kd: read-out: Kd as printed in text (9B1)
Ab15 = conditions: ref SI Table S2; cited from earlier work
9B1 [2] = conditions: estimated in original report; cited from earlier work

Molecule	Binding with h9B1 in initial screening (h9B1)	Binding with 9B1 in initial screening (9B1 [1])	Ki (h9B1)	IC50 (Ab15)	Ki (9B1 [1])	Kd (h9B1)	Kd (9B1 [1])	Binding constant of 9B1 with morphine (9B1 [2])
C=CCN1CC[C@]23c4c5ccc(O)c4O[C@H]2C(=O)CC[C@@]3(O)[C@H]1C5 [naloxone]	did not show significant binding affinities; also recorded: without significant binding	did not show significant binding affinities; also recorded: without significant binding						
buprenorphine	did not show significant binding affinities; also recorded: without significant binding	did not show significant binding affinities; also recorded: without significant binding						
O=C1CC[C@@]2(O)[C@H]3Cc4ccc(O)c5c4[C@@]2(CCN3CC2CC2)[C@H]1O5 [naltrexone]	did not show significant binding affinities; also recorded: without significant binding	did not show significant binding affinities; also recorded: without significant binding	> 10000 nM	310 nM	> 10000 nM			
COc1ccc2c3c1O[C@H]1C(=O)CC[C@@]4(O)[C@@H](C2)N(C)CC[C@]314 [oxycodone]			6910 nM		2670 nM			
COc1ccc2c3c1O[C@H]1C(=O)CC[C@H]4[C@@H](C2)N(C)CC[C@]314 [hydrocodone]			39.3 nM		8.2 nM	39.3 nM	8.2 nM	
CC(=O)Oc1ccc2c3c1O[C@H]1[C@@H](OC(C)=O)C=C[C@H]4[C@@H](C2)N(C)CC[C@@]341 [heroin]			11.8 nM		1.3 nM	11.8 nM	1.3 nM	
CN1CC[C@]23c4c5ccc(O)c4O[C@H]2[C@@H](O)C=C[C@H]3[C@H]1C5 [morphine]								~ 10^9 M^−1
CC(=O)O[C@H]1C=C[C@H]2[C@H]3Cc4ccc(O)c5c4[C@@]2(CCN3C)[C@H]1O5 [6-MAM, 6-monoacetylmorphine]			11.9 nM		4.8 nM	11.9 nM	4.8 nM	

— publication PMC7790953 (ACS chemical neuroscience, 2020)
